One data set has as its system fungi tested. Particulars: nicotinic acid 0.1 M; three to four days. The procedure:
(§1) The base ISTOR medium has the following composition:
(§2) The medium was prepared in potassium phosphate buffer at pH 5.7.

For data set [1], the system named is bacteria inoculated into the medium. The following applies: nicotinic acid 0.1 M; three to four days. As to the method:
as §1, §2

In the case of `O=C(O)c1cccnc1` [nicotinic acid], the solubility in water entry was “not very soluble in water”. Moreover, the growth of fungi result with fungi tested is recorded as “all of the fungi tested exhibited growth”. In data set [1], the growth of bacteria result is on record as “none of the bacteria inoculated into the medium grew”.

The values are drawn from patent US20050042711A1, “Field test for fungi” (GEORGE MASON UNIVERSITY, priority 2003, published 2005).
